Common to all, as to type: cell-based
The subject of one test is AR / CBP ternary complex. Put plainly: Ternary complex formation assay (sandwich ELISA, AR capture / CBP detection) in VCaP cell lysates. The settings on record: 1.5 hours treatment, sandwich ELISA (AR capture, CBP or p300 detection). An outline of the steps: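 VCaP cells (50K/well, 5% charcoal-stripped FBS, ≥3 days) treated with bifunctional compound for 1.5 h, then lysed 30 min at 4 °C. AR captured on anti-AR (AR 441) plates; bound CBP or p300 detected by rabbit mAb plus HRP secondary. QuantaRed chemifluorescence read at ex 570/em 585, immediately and at 5 and 15 min.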

The test system of the next test is HEK-293 cells. Briefly: HEK-293 growth inhibition assay. The settings on record: 3 days, CTG. The gist of the method: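 HEK-293 cells plated 24 hours before compound treatment, then exposed for 3 days at 37°C/5% CO2. Viability by CellTiter-Glo luminescence after 20 minutes at room temperature. IC50 from RLU versus concentration via 4-parameter logistic nonlinear regression.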

For a further test, the system named is VCaP cells. Briefly: VCaP growth inhibition assay. As to conditions: 30 pM R1881, 9 days, CTG. An outline of the steps: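 VCaP cells in phenol red-free DMEM/5% CSS, pre-incubated 72 h, then stimulated with R1881 (final 30 pM) and treated with 1:5 serial dilutions (final 100 nM to 10 fM) for 9 days at 37 °C. Viability by CellTiter-Glo luminescence; IC50 from 4-parameter logistic fit of RLU vs concentration.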

Test [1] concerns the target Histone H3.3/CBP-BD Interaction (Homo sapiens, UniProt Q92793). Put plainly: NanoBRET cellular assay (Histone H3.3/CBP-BD Interaction Assay). On the technique in general: In BRET a luciferase serves as donor, and the signal depends on an acceptor being close.

6 compounds from US20250129070A1, “BIFUNCTIONAL ANDROGEN RECEPTOR COMPOUNDS” (priority 2023, published 2025) can be followed below.

Where two headings read alike, the source gives them in different places.

Chain of Histone H3.3/CBP-BD Interaction (Q92793 1085-1192 limits assumed): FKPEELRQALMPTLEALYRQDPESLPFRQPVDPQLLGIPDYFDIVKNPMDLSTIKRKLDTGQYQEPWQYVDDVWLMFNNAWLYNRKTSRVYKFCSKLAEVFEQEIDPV

In the test with AR / CBP ternary complex, `CNC(=O)N1CCc2c(c(N3CCCc4cc(-c5cnn(C)c5)c(C(F)F)cc43)nn2C2CCN(C(=O)CN3CCN(c4ncc(C(=O)NC5C(C)(C)C(Oc6ccc(C#N)c(Cl)c6)C5(C)C)cn4)CC3)CC2)C1` (centres unmarked) [Compound 109, 1-[1-[2-[4-[5-[[3-(3-chloro-4-cyano-phenoxy)-2,2,4,4-tetramethyl-cyclobutyl]carbamoyl]pyrimidin-2-yl]piperazin-1-yl]acetyl]-4-piperidyl]-3-[7-(difluoromethyl)-6-(1-methylpyrazol-4-yl)-3,4-dihydro-2H-quinolin-1-yl]-N-methyl-6,7-dihydro-4H-pyrazolo[4,3-c]pyridine-5-carboxamide] yielded an EC50 of less than 1 nM. In addition, the IC50 is greater than 10000 nM in the test with HEK-293 cells, no more than 0.1 nM in the test with VCaP cells and greater than 1000 nM in test [1].
The compound `CNC(=O)N1CCc2c(c(N3CCCc4cc(-c5cnn(C)c5)c(C(F)F)cc43)nn2C2CCOCC2)C1` [GNE-781, reference compound] returned an IC50 in test [1] (HEK293 cells transfected with Histone H3.3-HaloTag and CBP-BD-NanoLuc, 22 hours treatment, test compounds starting at 1 uM, SGC-CBP-30 starting at 10 uM, 10-dose with 3-fold dilution) of 0.123 nM.
As to `CNC(=O)N1CCc2c(c(N3CCCc4cc(-c5cnn(C)c5)c(C(F)F)cc43)nn2C2CCN(C(=O)CN3CCN(c4ccc(C(=O)NC5C(C)(C)C(Oc6ccc(C#N)c(Cl)c6)C5(C)C)cn4)CC3)CC2)C1` (centres unmarked) [Compound 42, 1-[1-[2-[4-[5-[[3-(3-chloro-4-cyano-phenoxy)-2,2,4,4-tetramethyl-cyclobutyl]carbamoyl]-2-pyridyl]piperazin-1-yl]acetyl]-4-piperidyl]-3-[7-(difluoromethyl)-6-(1-methylpyrazol-4-yl)-3,4-dihydro-2H-quinolin-1-yl]-N-methyl-6,7-dihydro-4H-pyrazolo[4,3-c] pyridine-5-carboxamide], the EC50 in the test on AR / CBP ternary complex is less than 1 nM. Besides, the figures for the IC50 with HEK-293 cells and in the test on VCaP cells were greater than 10000 nM and no more than 0.1 nM, respectively.
In the same order, the values of `CNC(=O)N1CCc2c(c(N3CCCc4cc(-c5cnn(C)c5)c(C(F)F)cc43)nn2C2CCN(C(=O)COCCOCCCN3CCN(c4ncc(C(=O)NC5C(C)(C)C(Oc6ccc(C#N)c(Cl)c6)C5(C)C)cn4)CC3)CC2)C1` (centres unmarked) [Compound 102, 1-[1-[2-[2-[3-[4-[5-[[3-(3-chloro-4-cyano-phenoxy)-2,2,4,4-tetramethyl-cyclobutyl]carbamoyl]pyrimidin-2-yl]piperazin-1-yl]propoxy]ethoxy]acetyl]-4-piperidyl]-3-[7-(difluoromethyl)-6-(1-methylpyrazol-4-yl)-3,4-dihydro-2H-quinolin-1-yl]-N-methyl-6,7-dihydro-4H-pyrazolo[4,3-c]pyridine-5-carboxamide] are less than 1 nM, greater than 10000 nM and 0.1 to 1 nM.
In the same order, the values of `CNC(=O)N1CCc2c(c(N3CCCc4cc(-c5cnn(C)c5)c(C(F)F)cc43)nn2C2CCN(C(=O)COCC3CCN(c4ncc(C(=O)NC5C(C)(C)C(Oc6ccc(C#N)c(Cl)c6)C5(C)C)cn4)CC3)CC2)C1` (centres unmarked) [Compound 107, 1-[1-[2-[[1-[5-[[3-(3-chloro-4-cyano-phenoxy)-2,2,4,4-tetramethyl-cyclobutyl]carbamoyl]pyrimidin-2-yl]-4-piperidyl]methoxy]acetyl]-4-piperidyl]-3-[7-(difluoromethyl)-6-(1-methylpyrazol-4-yl)-3,4-dihydro-2H-quinolin-1-yl]-N-methyl-6,7-dihydro-4H-pyrazolo[4,3-c] pyridine-5-carboxamide] are less than 1 nM, greater than 10000 nM and no more than 0.1 nM.
`CNC(=O)N1CCc2c(c(N3CCCc4cc(-c5cnn(C)c5)c(C(F)F)cc43)nn2C2CCN(C(=O)COC3CCN(c4ncc(C(=O)NC5C(C)(C)C(Oc6ccc(C#N)c(Cl)c6)C5(C)C)cn4)CC3)CC2)C1` (centres unmarked) [Compound 100, 1-[1-[2-[[1-[5-[[3-(3-chloro-4-cyano-phenoxy)-2,2,4,4-tetramethyl-cyclobutyl]carbamoyl]pyrimidin-2-yl]-4-piperidyl]oxy]acetyl]-4-piperidyl]-3-[7-(difluoromethyl)-6-(1-methylpyrazol-4-yl)-3,4-dihydro-2H-quinolin-1-yl]-N-methyl-6,7-dihydro-4H-pyrazolo[4,3-c]pyridine-5-carboxamide] had an EC50 in the test with AR / CBP ternary complex of less than 1 nM. Moreover, the IC50 is greater than 10000 nM with HEK-293 cells and no more than 0.1 nM with VCaP cells.

The EC50 is the concentration needed to bring the measured effect to its halfway point. Broadly, the IC50 is the concentration that inhibits the measured activity by half.
